Results published in patent US8927728B2, “Dipeptide acetylene conjugates and a method for photocleavage of double strand DNA by dipeptide acetylene conjugates” (The Florida State University Research Foundation, Inc., priority 2011, dated 2015).
Structures can show the parent of a compound that is named as a salt. Marks after values point to notes of the source that are not given here.

How the values were obtained:
pBR322 plasmid DNA = assay: Plasmid relaxation assay for DNA photocleavage; type: biochemical; settings: 30 μM/base pair pBR322, pH 6, 7 and 8; for DNA cleavage efficiency: 15 μM lysine conjugate
Protocol: The present invention is additionally directed to methods of forming a double strand cleavage in DNA, wherein compounds having the above Structures are contacted with and bind to double stranded DNA. The pH-dependency of DNA-cleavage of the two bis-lysine conjugates was investigated. The top of FIGS. 6A and 6B depicts the results of the plasmid relaxation assay for DNA photocleavage with 15 μM of acetylenic conjugates (3) (FIG. 6A) and (5) (FIG. 6B) and […] (b.p.) of pBR322 plasmid DNA at pH range of 6-9 after 10 min. of UV (>310 nm) irradiation. The bottom of each of FIGS. 6A and 6B are graphs of quantified cleavage data as a function of pH for conjugates (3) (FIG. 6A) and (5) (FIG. 6B). The reported values represent the average of three experiments. Code: Form I, diamond; Form II, square; Form III, triangle.
The plasmid relaxation assay experiments were carried out on 15 μM of lysine conjugate with 30 μM/base pair of pBR322 plasmid DNA at pH 6, 7 and 8.
Plasmid DNA Photocleavage. pBR322 plasmid DNA (4,361 bp; from BioLabs Inc., 1 μg/μL solution in 10 mM Tris-HCl (pH 8.0), and 1mM EDTA buffer) was diluted to a concentration of 0.01 μg/μL. The solution containing cleavage agent, DNA (30 μM/bp) in 20 mM sodium phosphate buffer was incubated for 1 hour at 30° C. Samples were placed on ice at a distance of 20 cm from 200 W Hg—Xe lamp (Spectra-Physics, Laser & Photonics Oriel Instruments with long pass filter with 300 nm cut-on wavelength).
Electrophoretic Analysis. The gel electrophoresis was carried out in lx TBE buffer at 80 V using Miligel FisherBiotech Horizontal Electrophoresis System. All gels were run on 1% agarose slab gels. Before loading, the DNA samples were mixed with 0.33 volume of tracking dye containing bromophenol blue (0.25%) and glycerol (30%) in water. After staining in ethidium bromide solution (2 μg/mL) for 1 hour, the gel was washed with water and pictures were taken. The relative quantities of the supercoiled, nicked, and linear DNA were calculated by integrating the “area” of each spot by the image analyzer software Total/Lab (Nonlinear Dynamics Ltd., UK). […]

[1] = Fluorescence quenching by triethylamine (Stern-Volmer); type: physicochemical; settings: Et3N as a quencher; determined from Ksv and singlet lifetime
Protocol: The fluorescence quenching by triethylamine (Et3N) was tested in order to gauge relative efficiencies of these compounds as DNA photo-oxidizers. […] The measured singlet lifetimes allowed us to determine the quenching rate constant, kq, which in this system, should be very close in magnitude to the rate of electron transfer, kET. The 2-3-fold increase in the rate of electron transfer from Et3N to excited singlet state of the meta- and ortho-isomers in comparison to the para-isomer is consistent with the well-known photochemical ortho, meta effect of an acceptor substituent. See Zimmerman, H. E., The Meta Effect in Organic Photochemistry: Mechanistic and Exploratory Organic Photochemistry, J. Am. Chem. Soc., 1995, 117, 8988-8991. doi: 10.1021/ja00140a014 and Zimmerman, H. E.; Alabugin, I. V. J. Am. Chem. Soc. 2001, […]. doi: 10.1021/ja002402c.

[2] = tested on: A375 cells (Human Melanoma); assay: Cell proliferation (MTT) assay; type: cell-based; settings: A375, after 10 min UV irradiation at 360 nm
Protocol: The ability of compounds (15), (16), and (17) to inhibit cell proliferation in human melanoma cell lines was tested in the dark and under photoactivation. See FIGS. 9A and 9B, which depict cell proliferation assays in A375 cells (Human Melanoma) exposed to bis-lysine conjugates (15) (square), (16) (up-pointing triangle) and (17) (down-pointing triangle) in dark (FIG. 9A) and after 10 min. of UV (360 nm) irradiation (FIG. 9B).
MTT Assay. A375 cells were seeded at 2000 cells per well in a 96-well plate. Seven 2-fold serial dilutions of the compounds were added to the cells in triplicate. Concentrations were from 1 to 0.016 μM of compounds. After 4 hs of incubation with the compounds, cells were UV-irradiated for ten minutes at 365 nm (UV transluminator, Spectronomics Corp. model TR-365R). After 72hs of incubation, MTT (Sigma® cat#M2128) was added to cells to a final concentration of 1.25 mg/mL and incubated for 60 minutes. Cells were centrifuged at 900 g for 5 minutes at room temperature. Media was replaced with DMSO and absorbance will be measured in a plate reader at 570 nm.

[3] = from Carey, Organic Chemistry, 6th ed.; cited from earlier work
DNA = settings: literature value; cited from earlier work

With NCCCC[C@H](N)C(=O)Nc1cccc(C#Cc2c(F)c(F)nc(F)c2F)c1 [(16), (S)-2,6-Diamino-N-(3-((perfluoropyridin-4-yl)ethynyl)phenyl)hexanamide Dihydrochloride] as the molecule, how does the DNA cleavage efficiency (pBR322 plasmid DNA) read?
Its DNA cleavage efficiency is “less DNA cleavage than conjugate (15)”.

For CC(=O)Nc1ccc(C#Cc2c(F)c(F)nc(F)c2F)cc1 [(3) (para), N-(4-((Perfluoropyridin-4-yl)ethynyl)phenyl)acetamide], which kq (quenching rate constant) [1] is on record?
The kq (quenching rate constant) was 5.64e+09 M⁻¹ s⁻¹.

With CC(=O)Nc1ccccc1C#Cc1c(F)c(F)nc(F)c1F [(5) (ortho), N-(2-((Perfluoropyridin-4-yl)ethynyl)phenyl) acetamide] as the molecule, how does the kq (quenching rate constant) [1] read?
Its kq (quenching rate constant) is 1.43e+10 M⁻¹ s⁻¹.

Which kq (quenching rate constant) [1] does the source give for CC(=O)Nc1cccc(C#Cc2c(F)c(F)nc(F)c2F)c1 [(4) (meta), N-(3-((Perfluoropyridin-4-yl)ethynyl)phenyl)acetamide] here?
The kq (quenching rate constant) was 1.36e+10 M⁻¹ s⁻¹.

For NCCCC[C@H](N)C(=O)Nc1ccccc1C#Cc1c(F)c(F)nc(F)c1F [(17), (S)-2,6-Diamino-N-(2-((perfluoropyridin-4-yl)ethynyl)phenyl)hexanamide Dihydrochloride], which phototoxicity [2] is on record?
Its phototoxicity is “some phototoxicity”.

What about the DNA cleavage efficiency (pBR322 plasmid DNA) of the same molecule?
The DNA cleavage efficiency was “least efficient DNA cleavage”.

And the double-strand breaks (pBR322 plasmid DNA; 15 μM)?
The double-strand breaks was “has not produced any double-strand breaks”.

With NCCCC[C@H](N)C(=O)O [Lysine] as the molecule, how does the pKa1 [3] read?
Its pKa1 is 8.95^b.

And the pKa2 [3]?
Its pKa2 is 10.53^b.

With calicheamicin as the molecule, how does the “double strand breaks formed” value (DNA) read?
Its value is 25-33%.
